Source: patent publication US20220009945A1, “NOVEL UREA 6,7-DIHYDRO-4H-THIAZOLE[5,4-C]PYRIDINES ACTIVE AGAINST THE HEPATITIS B VIRUS (HBV)” (AICURIS GMBH & CO. KG, priority 2018, published 2022)
Counter-ions that a name gives are not always drawn.

test system: HBV; details: Hepatitis B virus, HePAD38, 144 h, read-out: Cell Activity

Row | Compound | EC50 [µM]
1 | CC1(S(=O)(=O)Nc2nc3c(s2)CN(C(=O)Nc2ccc(F)c(Cl)c2)CC3)CC1 [Example 18, N-(3-chloro-4-fluorophenyl)-2-(1-methylcyclopropanesulfonamido)-4H,5H,6H,7H-[1,3]thiazolo[5,4-c]pyridine-5-carboxamide] | 1 to 10
2 | O=C(Nc1nc2c(s1)CN(C(=O)Nc1ccc(F)c(Cl)c1)CC2)C1CCOCC1 [Example 11, N-(3-chloro-4-fluorophenyl)-2-(oxane-4-amido)-4H,5H,6H,7H-[1,3]thiazolo[5,4-c]pyridine-5-carboxamide] | < 1
3 | O=C(Nc1nc2c(s1)CN(C(=O)Nc1ccc(F)c(Cl)c1)CC2)C1CCOC1 (stereo not drawn) [Example 10, N-(3-chloro-4-fluorophenyl)-2-(oxolane-3-amido)-4H,5H,6H,7H-[1,3]thiazolo[5,4-c]pyridine-5-carboxamide] | < 1
4 | O=C(Nc1ccc(F)c(Cl)c1)N1CCc2nc(NCC3CCOC3)sc2C1 (stereo not drawn) [Example 5, N-(3-chloro-4-fluorophenyl)-2-{[(oxolan-3-yl)methyl]amino}-4H,5H,6H,7H-[1,3]thiazolo [5,4-c]pyridine-5-carboxamide] | < 1
5 | Cc1cc(NC(=O)N2CCc3nc(NCC4(O)CCC4)sc3C2)ccc1F [Example 13, N-(4-fluoro-3-methylphenyl)-2-{[(1-hydroxycyclobutyl)methyl]amino}-4H,5H,6H,7H-[1,3]thiazolo[5,4-c]pyridine-5-carboxamide] | < 1
6 | Nc1nc2c(s1)CN(C(=O)Nc1ccc(F)c(Cl)c1)CC2 [Example 1, 2-amino -N-(3-chloro-4-fluorophenyl)-4H,5H,6H,7H-[1,3] thiazolo[5,4-c]pyridine-5-carboxamide] | < 1
7 | O=C(Nc1ccc(F)c(Cl)c1)N1CCc2nc(NC(=O)[C@H]3C[C@H](O)C3)sc2C1 [Example 20, N-(3-chloro-4-fluorophenyl)-2-[(1r,3r)-3-hydroxycyclobutaneamido]-4H,5H,6H,7H-[1,3]thiazolo[5,4-c]pyridine-5-carboxamide] | < 1
8 | O=C(Nc1ccnc(C(F)F)c1)N1CCc2nc(NCC3(O)CCC3)sc2C1 [Example 19, N-[2-(difluoromethyl)pyridin-4-yl]-2-{[(1-hydroxycyclobutyl)methyl]amino}-4H,5H,6H,7H-[1,3]thiazolo[5,4-c]pyridine-5-carboxamide] | 1 to 10
9 | C[C@H]1Cc2nc(NC(=O)[C@H]3C[C@H](O)C3)sc2CN1C(=O)Nc1ccc(F)c(Cl)c1 [Example 21, (6S)-N-(3-chloro-4-fluorophenyl)-6-methyl-2-[(1r,3r)-3-hydroxycyclobutaneamido]-4H,5H,6H,7H-[1,3]thiazolo[5,4-c]pyridine-5-carboxamide] | < 1
10 | O=C(Nc1ccnc(C(F)F)c1)N1CCc2nc(N[C@H]3C[C@H](O)C3)sc2C1 [Example 16, N-[2-(difluoromethyl)pyridin-4-yl]-2-{[(1r,3r)-3-hydroxycyclobutyl]amino}-4H,5H,6H,7H-[1,3]thiazolo[5,4-c]pyridine-5-carboxamide] | 1 to 10
11 | N#Cc1cc(NC(=O)N2CCc3nc(NCC4(O)CCC4)sc3C2)ccc1F [Example 14, N-(3-cyano-4-fluorophenyl)-2-{[(1-hydroxycyclobutyl)methyl]amino}-4H,5H,6H,7H-[1,3]thiazolo[5,4-c]pyridine-5-carboxamide] | < 1
12 | O=C(Nc1ccc(F)c(Cl)c1)N1CCc2nc(NS(=O)(=O)C3CC3)sc2C1 [Example 17, N-(3-chloro-4-fluorophenyl)-2-cyclopropanesulfonamido-4H,5H,6H,7H-[1,3]thiazolo[5,4-c]pyridine-5-carboxamide] | 1 to 10
13 | O=C(Nc1ccc(F)c(Cl)c1)N1CCc2nc(NCC3(O)CC3)sc2C1 [Example 12, N-(3-chloro-4-fluorophenyl)-2-{[(1-hydroxycyclopropyl)methyl]amino}-4H,5H,6H,7H-[1,3]thiazolo[5,4-c]pyridine-5-carboxamide] | < 1
14 | CN1CCC(C(=O)Nc2nc3c(s2)CN(C(=O)Nc2ccc(F)c(Cl)c2)CC3)CC1 [Example 8, N-{5-[(3-chloro-4-fluorophenyl)carbamoyl]-4H,5H,6H,7H-[1,3]thiazolo[5,4-c]pyridin-2-yl}-1-methylpiperidine-4-carboxamide formate] | < 1
15 | O=C(Nc1ccc(F)c(Cl)c1)N1CCc2nc(NC3CCOC3)sc2C1 (stereo not drawn) [Example 4, N-(3-chloro-4-fluorophenyl)-2-[(oxolan-3-yl)amino]-4H,5H,6H,7H-[1,3]thiazolo[5,4-c]pyridine-5-carboxamide] | < 1
16 | O=C(Nc1ccc(F)c(Cl)c1)N1CCc2nc(N[C@H]3CC[C@@H](O)CC3)sc2C1 [Example 7, N-(3-chloro-4-fluorophenyl)-2-{[(1s,4s)-4-hydroxycyclohexyl]amino}-4H,5H,6H,7H-[1,3]thiazolo[5,4-c]pyridine-5-carboxamide] | < 1
17 | O=C(Nc1ccc(F)c(Cl)c1)N1CCc2nc(NC3(CO)CCC3)sc2C1 [Example 3, N-(3-chloro-4-fluorophenyl)-2-{[1-(hydroxymethyl)cyclobutyl]amino}-4H,5H,6H,7H-[1,3]thiazolo[5,4-c]pyridine-5-carboxamide] | < 1
18 | O=C(Nc1ccc(F)c(Cl)c1)N1CCc2nc(N[C@H]3C[C@H](O)C3)sc2C1 [Example 2, N-(3-chloro-4-fluorophenyl)-2-{[(1r,3r)-3-hydroxycyclobutyl]amino}-4H,5H,6H,7H-[1,3]thiazolo[5,4-c]pyridine-5-carboxamide] | < 1
19 | O=C(Nc1ccc(F)c(Cl)c1)N1CCc2nc(NCC3(O)CC(F)(F)C3)sc2C1 [Example 9, N-(3-chloro-4-fluorophenyl)-2-{[(3,3-difluoro-1-hydroxycyclobutyl)methyl]amino}-4H,5H,6H,7H-[1,3]thiazolo[5,4-c]pyridine-5-carboxamide] | < 1
20 | O=C(Nc1ccc(F)c(Cl)c1)N1CCc2nc(NCC3(O)CCC3)sc2C1 [Example 6, N-(3-chloro-4-fluorophenyl)-2-{[(1-hydroxycyclobutyl)methyl]amino}-4H,5H,6H,7H-[1,3]thiazolo[5,4-c]pyridine-5-carboxamide] | < 1
21 | O=C(Nc1nc2c(s1)CN(C(=O)Nc1ccc(F)c(Cl)c1)CC2)C1CCC(O)CC1 (stereo not drawn) [Example 15, N-(3-chloro-4-fluorophenyl)-2-(4-hydroxycyclohexaneamido)-4H,5H,6H,7H-[1,3]thiazolo[5,4-c]pyridine-5-carboxamide] | < 1
